Counter-ions that a name gives are not always drawn.
Key:
Format in all cases: biochemical
[1] = target: T1, human JAK3 (a.a. 781-1124) (Homo sapiens, UniProt P52333); assay: In vitro JAK kinase assay (HTRF, phosphorylation of a biotinylated peptide), JAK3; details: Table D1
T1 construct: JAK3 (a.a. 781-1124); His tag (N); made in house; host or cells: insect cells (baculovirus)
Method in brief: (§1)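 Phosphorylation of a biotinylated peptide by the JAK kinase domain, detected by HTRF with Eu-Py20 and SA-APC. ATP was 90 μM for JAK1, 30 μM for JAK2 and 3 μM for JAK3. Reactions ran 1 h at room temperature and were stopped with EDTA, followed by 40 min antibody binding.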

TYK2 = TYK2 (Homo sapiens, UniProt P29597); assay: TYK2 kinase inhibition (Table A1); details: Table D1
[2] = target: T2, human JAK1 (a.a. 837-1142) (Homo sapiens, UniProt P23458); assay: In vitro JAK kinase assay (HTRF, phosphorylation of a biotinylated peptide), JAK1; details: Table D1; read-out: JAK1 IC50
T2 construct: human JAK1 (a.a. 837-1142); His tag (N); made in house; host or cells: insect cells (baculovirus)
Method in brief: as §1

[3] = target: T3, human JAK2 (a.a. 828-1132) (Homo sapiens, UniProt O60674); assay: In vitro JAK kinase assay (HTRF, phosphorylation of a biotinylated peptide), JAK2; details: Table D1
T3 construct: JAK2 (a.a. 828-1132); His tag (N); made in house; host or cells: insect cells (baculovirus)
Method in brief: as §1

TYK2, sequence (P29597 whole entry): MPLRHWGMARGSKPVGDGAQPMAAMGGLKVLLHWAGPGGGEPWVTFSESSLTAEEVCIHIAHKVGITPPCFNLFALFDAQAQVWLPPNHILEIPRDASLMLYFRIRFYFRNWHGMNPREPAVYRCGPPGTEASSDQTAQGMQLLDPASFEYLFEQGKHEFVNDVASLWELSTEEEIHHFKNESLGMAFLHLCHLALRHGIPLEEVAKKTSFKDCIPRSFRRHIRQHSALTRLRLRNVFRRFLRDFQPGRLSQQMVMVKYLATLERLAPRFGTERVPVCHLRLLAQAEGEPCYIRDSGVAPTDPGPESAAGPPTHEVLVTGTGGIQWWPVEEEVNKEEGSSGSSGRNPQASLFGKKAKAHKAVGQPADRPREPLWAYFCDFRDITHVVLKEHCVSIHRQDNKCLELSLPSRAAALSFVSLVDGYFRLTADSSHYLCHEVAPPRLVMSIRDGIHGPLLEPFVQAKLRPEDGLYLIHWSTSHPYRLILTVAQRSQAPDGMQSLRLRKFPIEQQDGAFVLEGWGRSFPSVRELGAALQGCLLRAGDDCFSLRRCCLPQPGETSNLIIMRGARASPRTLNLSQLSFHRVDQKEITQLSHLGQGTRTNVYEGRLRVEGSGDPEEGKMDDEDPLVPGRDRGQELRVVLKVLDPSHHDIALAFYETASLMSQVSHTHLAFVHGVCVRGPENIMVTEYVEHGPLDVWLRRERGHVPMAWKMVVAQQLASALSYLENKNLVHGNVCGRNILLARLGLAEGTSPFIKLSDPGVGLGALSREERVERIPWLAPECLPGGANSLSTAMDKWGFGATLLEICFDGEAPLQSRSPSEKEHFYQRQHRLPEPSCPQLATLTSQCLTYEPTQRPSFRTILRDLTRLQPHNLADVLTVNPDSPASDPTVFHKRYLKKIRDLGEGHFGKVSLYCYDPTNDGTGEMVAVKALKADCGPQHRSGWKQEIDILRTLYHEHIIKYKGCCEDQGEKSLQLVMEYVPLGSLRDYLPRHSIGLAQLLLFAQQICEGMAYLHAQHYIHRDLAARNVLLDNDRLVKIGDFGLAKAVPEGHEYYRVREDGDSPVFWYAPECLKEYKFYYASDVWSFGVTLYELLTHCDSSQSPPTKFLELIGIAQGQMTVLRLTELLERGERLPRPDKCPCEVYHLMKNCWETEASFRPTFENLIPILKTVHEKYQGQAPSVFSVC
T2 sequence (P23458 849-1154): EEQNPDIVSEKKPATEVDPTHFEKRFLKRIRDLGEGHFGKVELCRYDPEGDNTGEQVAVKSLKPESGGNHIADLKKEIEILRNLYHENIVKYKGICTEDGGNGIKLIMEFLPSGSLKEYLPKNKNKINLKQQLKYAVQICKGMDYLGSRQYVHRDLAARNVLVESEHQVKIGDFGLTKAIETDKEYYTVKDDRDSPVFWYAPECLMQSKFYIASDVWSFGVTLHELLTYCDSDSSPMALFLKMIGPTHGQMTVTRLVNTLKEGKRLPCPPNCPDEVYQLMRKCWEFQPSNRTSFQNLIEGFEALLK
T3 sequence (O60674 828-1132): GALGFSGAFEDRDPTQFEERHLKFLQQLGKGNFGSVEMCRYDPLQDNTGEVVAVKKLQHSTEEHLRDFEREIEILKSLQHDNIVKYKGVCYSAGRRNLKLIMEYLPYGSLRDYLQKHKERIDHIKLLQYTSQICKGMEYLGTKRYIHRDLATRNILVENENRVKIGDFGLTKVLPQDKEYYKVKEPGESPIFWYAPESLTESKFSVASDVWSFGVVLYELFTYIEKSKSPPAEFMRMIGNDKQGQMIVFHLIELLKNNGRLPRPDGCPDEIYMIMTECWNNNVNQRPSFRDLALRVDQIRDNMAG
T1 sequence (P52333 781-1124): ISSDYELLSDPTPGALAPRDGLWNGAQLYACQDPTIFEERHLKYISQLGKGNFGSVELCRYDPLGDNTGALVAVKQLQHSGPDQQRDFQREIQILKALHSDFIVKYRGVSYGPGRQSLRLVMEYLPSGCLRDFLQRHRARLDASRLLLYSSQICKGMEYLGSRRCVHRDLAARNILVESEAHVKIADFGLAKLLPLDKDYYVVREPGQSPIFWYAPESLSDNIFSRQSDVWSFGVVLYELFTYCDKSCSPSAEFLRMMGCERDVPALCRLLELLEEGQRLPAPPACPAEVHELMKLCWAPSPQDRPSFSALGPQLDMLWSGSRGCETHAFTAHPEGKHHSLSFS

IC50 [1] | IC50 (TYK2) | IC50 [2] | IC50 [3] | Compound
85 nM | 70 nM | 32 nM | 13 nM | O=C(C[C@H]1CCCN(C(=O)c2ccccc2)C1)Nc1ccc2cc1CCc1cccc(c1)Nc1ncc(Cl)c(n1)N2 [Example D203, 2-[(3R)-1-Benzoylpiperidin-3-yl]-N-[6-chloro-2,4,8,22-tetraazatetracyclo[14.3.1.1(3,7).1(9,13)]docosa-1(20),3(22),4,6,9(21),10,12,16,18-nonaen-12-yl]acetamide trifluoroacetate]
101 nM | 12 nM | 7.2 nM | 12 nM | CC(=O)N1CCC[C@@H](CC(=O)Nc2ccc3cc2CCc2cncc(c2)Nc2ncc(Cl)c(n2)N3)C1 [Example D204, 2-[(3S)-1-Acetylpiperidin-3-yl]-N-[6-chloro-2,4,8,18,22-pentaazatetracyclo[14.3.1.1(3,7).1(9,13)]docosa-1(20),3(22),4,6,9(21),10,12,16,18-nonaen-12-yl]acetamide bis(trifluoroacetate)]
107 nM | 25 nM | 7.1 nM | 15 nM | CC(=O)N1CCC[C@H](CC(=O)Nc2ccc3cc2CCc2cncc(c2)Nc2ncc(Cl)c(n2)N3)C1 [Example D205, 2-[(3R)-1-Acetylpiperidin-3-yl]-N-[6-chloro-2,4,8,18,22-pentaazatetracyclo[14.3.1.1(3,7).1(9,13)]docosa-1(20),3(22),4,6,9(21),10,12,16,18-nonaen-12-yl]acetamide bis(trifluoroacetate)]
147 nM | 13 nM | 9.2 nM | 14 nM | O=C(C[C@@H]1CCCN(C(=O)c2ccccc2)C1)Nc1ccc2cc1CCc1cncc(c1)Nc1ncc(Cl)c(n1)N2 [Example D206, 2-[(3S)-1-Benzoylpiperidin-3-yl]-N-[6-chloro-2,4,8,18,22-pentaazatetracyclo[14.3.1.1(3,7).1(9,13)]docosa-1(20),3(22),4,6,9(21),10,12,16,18-nonaen-12-yl]acetamide bis(trifluoroacetate)]
109 nM | 56 nM | 9.4 nM | 5.4 nM | O=C(C[C@H]1CCCN(C(=O)c2ccccc2)C1)Nc1ccc2cc1CCc1cncc(c1)Nc1ncc(Cl)c(n1)N2 [Example D207, 2-[(3R)-1-Benzoylpiperidin-3-yl]-N-[6-chloro-2,4,8,18,22-pentaazatetracyclo[14.3.1.1(3,7).1(9,13)]docosa-1(20),3(22),4,6,9(21),10,12,16,18-nonaen-12-yl]acetamide bis(trifluoroacetate)]
64 nM | 82 nM | 18 nM | 15 nM | Cc1cc(C(=O)N2CCC[C@@H](CC(=O)Nc3ccc4cc3CCc3cncc(c3)Nc3ncc(Cl)c(n3)N4)C2)no1 [Example D208, N-[6-Chloro-2,4,8,18,22-pentaazatetracyclo[14.3.1.1(3,7).1(9,13)]docosa-1(20),3(22),4,6,9(21),10,12,16,18-nonaen-12-yl]-2-{(3S)-1-[(5-methylisoxazol-3-yl)carbonyl]piperidin-3-yl}acetamide bis(trifluoroacetate)]
> 400 nM | 276 nM | 13 nM | 44 nM | O=C(OCc1ccccc1)N1CCC(CCNc2ccc3cc2CCc2cncc(c2)Nc2ncc(Cl)c(n2)N3)CC1 [Example D215, Benzyl 4-(2-{[6-chloro-2,4,8,18,22-pentaazatetracyclo[14.3.1.1(3,7).1(9,13)]docosa-1(20),3(22),4,6,9(21),10,12,16,18-nonaen-12-yl]amino}ethyl)piperidine-1-carboxylate]
> 400 nM | 300 nM | 23 nM | 276 nM | Clc1cnc2nc1Nc1ccc(NCCC3CCNCC3)c(c1)CCc1cncc(c1)N2 [Example D216, 6-Chloro-N-(2-piperidin-4-ylethyl)-2,4,8,18,22-pentaazatetracyclo[14.3.1.1(3,7).1(9,13)]docosa-1(20),3(22),4,6,9(21),10,12,16,18-nonaen-12-amine tetrakis(trifluoroacetate)]
> 400 nM | 46 nM | 13 nM | 64 nM | Cc1cc(C(=O)N2CCC(CCNc3ccc4cc3CCc3cncc(c3)Nc3ncc(Cl)c(n3)N4)CC2)no1 [Example D218, 6-Chloro-N-(2-{1-[(5-methylisoxazol-3-yl)carbonyl]piperidin-4-yl}ethyl)-2,4,8,18,22-pentaazatetracyclo[14.3.1.1(3,7).1(9,13)]docosa-1(20),3(22),4,6,9(21),10,12,16,18-nonaen-12-amine tris(trifluoroacetate)]
> 400 nM | 38 nM | 14 nM | 49 nM | CC(=O)N1CCC(CCNc2ccc3cc2CCc2cncc(c2)Nc2ncc(Cl)c(n2)N3)CC1 [Example D219, N-[2-(1-Acetylpiperidin-4-yl)ethyl]-6-chloro-2,4,8,18,22-pentaazatetracyclo[14.3.1.1(3,7).1(9,13)]docosa-1(20),3(22),4,6,9(21),10,12,16,18-nonaen-12-amine tris(trifluoroacetate)]
> 400 nM | 38 nM | 14 nM | 40 nM | O=C(c1ccc(F)cc1F)N1CCC(CCNc2ccc3cc2CCc2cncc(c2)Nc2ncc(Cl)c(n2)N3)CC1 [Example D220, 6-Chloro-N-{2-[1-(2,4-difluorobenzoyl)piperidin-4-yl]ethyl}-2,4,8,18,22-pentaazatetracyclo[14.3.1.1(3,7).1(9,13)]docosa-1(20),3(22),4,6,9(21),10,12,16,18-nonaen-12-amine tris(trifluoroacetate)]
> 400 nM | 59 nM | 20 nM | 70 nM | O=S(=O)(c1ccccc1F)N1CCC(CCNc2ccc3cc2CCc2cncc(c2)Nc2ncc(Cl)c(n2)N3)CC1 [Example D221, 6-Chloro-N-(2-{1-[(2-fluorophenyl)sulfonyl]piperidin-4-yl}ethyl)-2,4,8,18,22-pentaazatetracyclo[14.3.1.1(3,7).1(9,13)]docosa-1(20),3(22),4,6,9(21),10,12,16,18-nonaen-12-amine tris(trifluoroacetate)]
> 400 nM | 90 nM | 21 nM | 111 nM | N#Cc1ccccc1S(=O)(=O)N1CCC(CCNc2ccc3cc2CCc2cncc(c2)Nc2ncc(Cl)c(n2)N3)CC1 [Example D222, 2-{[4-(2-{[6-Chloro-2,4,8,18,22-pentaazatetracyclo[14.3.1.1(3,7).1(9,13)]docosa-1(20),3(22),4,6,9(21),10,12,16,18-nonaen-12-yl]amino}ethyl)piperidin-1-yl]sulfonyl}benzonitrile tris(trifluoroacetate)]
> 400 nM | > 400 nM | > 400 nM | 106 nM | CN1c2cccc(c2)CCc2cccc(c2)Nc2nccc1n2 [Example D223, 8-Methyl-2,4,8,22-tetraazatetracyclo[14.3.1.1(3,7).1(9,13)]docosa-1(20),3(22),4,6,9(21),10,12,16,18-nonaene trifluoroacetate]
> 400 nM | > 400 nM | 300 nM | 126 nM | CN1c2cccc(c2)CCc2cncc(c2)Nc2nccc1n2 [Example D224, 8-Methyl-2,4,8,18,22-pentaazatetracyclo[14.3.1.1(3,7).1(9,13)]docosa-1(20),3(22),4,6,9(21),10,12,16,18-nonaene bis(trifluoroacetate)]

Reference: patent publication US8871753B2, “Macrocyclic compounds and their use as kinase inhibitors” (Incyte Corporation, priority 2008, dated 2014)
